Source: patent US10051861B2, “N-arylamidine-substituted trifluoroethyl sulfide derivatives as acaricides and insecticides” (BAYER CROPSCIENCE AG, priority 2011, dated 2018)
Marks after values point to notes of the source that are not given here.

How the values were obtained:
[1] = system: larvae of the mustard beetle (Phaedon cochleariae); assay: Phaedon test (PHAECO spray treatment); conditions: application rate 500 g/ha, after 7 days
[2] = system: greenhouse red spider mite (Tetranychus urticae); assay: Tetranychus test, OP-resistant (TETRUR spray treatment); type: in vivo; conditions: application rate 500 g/ha, after 6 days
Experimental: (§1) After 6 days, the effect in % is determined.

[3] = logP by HPLC on reversed-phase columns (C 18), EEC Directive 79/831 Annex V.A8; type: physicochemical; conditions: for logP(HCOOH): pH 2.7; for logP(neutral): pH 7.8
Experimental: Calibration is carried out using unbranched alkan-2-ones (having from 3 to 16 carbon atoms) with known log P values (the log P values are determined by the retention times using linear interpolation between two successive alkanones).

[4] = system: larvae of the mustard beetle (Phaedon cochleariae); assay: Phaedon cochleariae spray test (PHAECO); conditions: application rate 500 g/ha, after 7 days
[5] = system: greenhouse red spider mite (Tetranychus urticae); assay: Tetranychus urticae spray test, OP-resistant (TETRUR), bean leaf disks; type: in vivo; conditions: application rate 500 g/ha, after 6 days
Experimental: as §1

[6] = system: cattle ticks (Boophilus microplus); assay: Boophilus microplus injection test (BOOPMI Inj); type: in vivo; conditions: application rate 20 μg/animal, injection, after 7 days
Experimental: Solvent: dimethyl sulfoxide
1 μl of the active compound solution is injected into the abdomen of 5 engorged adult female cattle ticks (Boophilus microplus). The animals are transferred into dishes and kept in a climate-controlled room.
The activity is assessed after 7 days by laying of fertile eggs. Eggs whose fertility is not visible from the outside are stored in a climate-controlled cabinet until the larvae hatch after about 42 days. An efficacy of 100% means that none of the ticks has laid any fertile eggs; 0% means that all eggs are fertile.

logP(HCOOH) [3]	logP(neutral) [3]	Structure (SMILES)	efficacy (beetle larvae killed) [1] [%]	efficacy (spider mites killed) [2] [%]	effect (beetle larvae killed) [4] [%]	efficacy (spider mites killed) [5] [%]	efficacy (laying of fertile eggs) [6] [%]
4.45	4.43	CCCNC(=Nc1cc(SCC(F)(F)F)c(C)cc1F)C(F)(F)F [Ia-02]	100	100	100	100	
3.72	3.69	CNC(=Nc1cc(SCC(F)(F)F)c(F)cc1C)C(F)(F)F [Ia-09]		80		80	
3.95	4.01	CNC(=Nc1cc(SCC(F)(F)F)c(C)cc1C)C(F)(F)F [Ia-12]		100		100	
		NC(=Nc1cc(SCC(F)(F)F)c(Cl)cc1Cl)C(F)(F)F [Ia-14]	100		100	100	
3.16	3.14	Cc1cc(F)c(SCC(F)(F)F)cc1N=C(N)C(F)(F)F [Ia-17]		80		80	
		CNC(=Nc1ccc(C(F)(F)F)c(SCC(F)(F)F)c1)C(F)(F)F [Ia-19]	100		100	100	
4.87^[a]; 4.87^[b]	4.87^[a]; 4.87^[b]	Cc1cc(C)c(SCC(F)(F)F)cc1N=C(N(C)C)C(F)(F)F [Ia-23]		100		100	
4.03	4.02	Cc1cc(F)c(N=C(NC2CC2)C(F)(F)F)cc1SCC(F)(F)F [Ia-26]		100		100	
		Cc1cc(F)c(N=C(NC(C)C)C(F)(F)F)cc1[S+]([O-])CC(F)(F)F (stereo not drawn) [Ib-03]		100		100	100
3.15	3.09	CNC(=Nc1cc([S+]([O-])CC(F)(F)F)c(C)cc1C)C(F)(F)F (stereo not drawn) [Ib-04]		80		80	
2.86	2.79	CNC(=Nc1cc([S+]([O-])CC(F)(F)F)c(F)cc1C)C(F)(F)F (stereo not drawn) [Ib-05]		80		80	
3.24	3.17	CCCNC(=Nc1cc([S+]([O-])CC(F)(F)F)c(C)cc1F)C(F)(F)F (stereo not drawn) [Ib-06]		100		100	
2.64	2.61	CNC(=Nc1cc([S+]([O-])CC(F)(F)F)c(C)cc1F)C(F)(F)F (stereo not drawn) [Ib-07]		100		100	100
2.68	2.67	Cc1cc(F)c(/N=C(/NC2CC2)C(F)(F)F)cc1[S+]([O-])CC(F)(F)F (stereo not drawn) [Ib-08]		100		100	
3.23	3.19	Cc1cc(C)c([S+]([O-])CC(F)(F)F)cc1N=C(N(C)C)C(F)(F)F (stereo not drawn) [Ib-09]		100		100	
3.36	3.3	Cc1cc(C)c([S+]([O-])CC(F)(F)F)cc1/N=C(/N)C(F)(F)F (stereo not drawn) [Ib-12]		100		100	100
2.17	2.14	Cc1cc(F)c([S+]([O-])CC(F)(F)F)cc1N=C(N(C)C)C(F)(F)F (stereo not drawn) [Ib-15]		100		100	
